The test system of data set [1] is chronically hypoxic piglets. The data set can be described thus: In vivo hemodynamics in newborn piglets exposed to 10 days of chronic hypoxia. The text has this:
A total of 17 hypoxic and 17 control piglets were studied. Control animals were studied on the day of arrival from the farm at 12 days of age. The hypoxic pigs (2 days old) were placed in a normobaric hypoxic chamber for 10 to 11 days. Normobaric hypoxia was provided using compressed air and nitrogen to create inspired oxygen of 8-11% (PO2 60-72 Torr) and CO2 was maintained at 3-6 Torr by absorption with soda lime. The animals were monitored with daily weights and physical exam twice daily. They were fed ad lib with sow milk replacer from a feeding device in the cage.
Six of the seventeen hypoxic piglets were supplemented with oral L-citrulline starting on the first day of the hypoxic exposure. L-citrulline supplementation was provided at a dose of 0.13-gm/kilogram body weight twice a day using a syringe to deliver the dose orally. If it appeared to study personnel that the piglet had not ingested the majority of a dose, it was repeated. L-citrulline was mixed using a preparation (Sigma Pharmaceuticals, St. Louis, Mo., United States of America, 98% purity) at a concentration of 0.13 grams per milliliter of distilled water and when completely dissolved passing this solution through a 0.20 Micron filter.
In vivo hemodynamics were measured in 6 of the control piglets and all of the hypoxic piglets. […] Pulmonary artery pressure, left ventricular end diastolic pressure, and cardiac output were measured. Cardiac output was measured by a thermodilution technique (model 9520 thermodilution cardiac output computer, Edwards Laboratory, Irvine, Calif., United States of America) using a thermistor in the aortic arch and the left ventricle catheter as an injection port. Cardiac output was measured at end expiration as the mean of three injections of 3 ml of normal saline (0° C.). Exhaled NO was measured as described below. […]
Pulmonary vascular resistance was calculated from the in vivo hemodynamic measurements: (Pulmonary arterial pressure−left ventricular end diastolic pressure)÷(Cardiac output/body weight). […]

Another data set relates to exhaled NO. The data set can be described thus: Exhaled nitric oxide measurement in anesthetized piglets. The note with it: FIG. 5; p-value 0.032; not different from control (p=0.124). In kind it is in vivo. The method, then:
In vivo hemodynamics were measured in 6 of the control piglets and all of the hypoxic piglets. For these measurements, the animals were weighed and then preanesthetized with Ketamine (15 mg/kg) and Acepromazine (2 mg/kg) intramuscularly. A tracheostomy, venous and arterial catheters, and thermistor were then placed as previously described using intravenous pentobarbital for sedation. Fike, C. D. et al., J Appl Physiol (2000) 88:1797-1803. Pulmonary artery pressure, left ventricular end diastolic pressure, and cardiac output were measured. Cardiac output was measured by a thermodilution technique (model 9520 thermodilution cardiac output computer, Edwards Laboratory, Irvine, Calif., United States of America) using a thermistor in the aortic arch and the left ventricle catheter as an injection port. Cardiac output was measured at end expiration as the mean of three injections of 3 ml of normal saline (0° C.). Exhaled NO was measured as described below. […]
For exhaled NO measurement in anesthetized animals, expiratory gas was sampled two to three times for 3 minute periods each and passed through a chemiluminescence analyzer (model 270B NOA; Sievers, Boulder, Colo., United States of America) to measure NO concentration as previously described. […] Exhaled NO production (nmol/min) was calculated using minute ventilation and the measured exhaled NO concentration.

The test system of the next data set is nitrite/nitrate (NOx-). The data set can be described thus: Isolated lung perfusion, perfusate NOx- measurement. In kind it is in vivo, piglets. To be noted: FIG. 6; p=0.04; no difference from normoxic controls. As for the experimental part: The lungs were isolated and perfused in situ with a Krebs Ringer bicarbonate (KRB) solution containing 5% dextran, mol. wt. 70,000, at 37° C. and ventilated with a normoxic gas mixture (21% O2 and 5% CO2) as previously described. Fike, C. D. et al., J Appl Physiol (2000) 88:1797-1803. The lungs were perfused for 30-60 min until a stable pulmonary arterial pressure was achieved. Perfusate samples (1 ml) were then removed from the left atrial cannula every 10 min for a 60-minute period. The perfusate samples were centrifuged, and the supernatant was stored at −80° C. for future analysis of nitrite/nitrate (NOx^−) concentrations as described below. At the end of the perfusion, the volume of perfusate remaining in the circuit and reservoir was measured. […]
The perfusate NOx^− […] was calculated for each collection time by multiplying the perfusate concentration of NOx^− at that sample collection time by the volume of the system (perfusion circuit+reservoir) at the sample collection time plus the amount of NOx^− removed with all previous samples. The rate of NOx^− production was determined from the slope of a linear regression line fit to the amount of NOx^− in the perfusate versus time for the first 60 minutes of the collection period.

Data set [2] can be described thus: Plasma amino acid measurements. Format: in vivo, piglets. The note with it: for Plasma Citrulline: mean ± SEM. The method, then: On the day of hemodynamic measurements and/or lung perfusion study, for control and both L-citrulline treated and untreated chronic hypoxic animals, blood was drawn prior to starting the study and the plasma frozen at -80 degrees for later determination of amino acid levels. For the L-citrulline treated hypoxic animals, the time of obtaining the blood sample was approximately 12 hours after the last dose of L-citrulline so was a trough level. In some of the L-citrulline treated animals (n=3), after blood sampling for a trough level, a dose of L-citrulline was given via nasogastric tube. Following this dose, blood samples were drawn every 30 minutes for 90 minutes (the length of the in vivo studies). All samples were spun, the plasma collected and frozen at -80 degrees for amino acid analysis. Concentrations of plasma citrulline and arginine were determined by amino-acid analysis on protein-free extracts. Amino acids were separated by cation-exchange chromatography using a Hitachi […] amino acid analyzer (Hitachi USA, San Jose, Calif., United States of America). Calibration of the analyzer was performed before testing of piglet samples.

The structures appear in SMILES notation.

As for `NC(=O)NCCC[C@H](N)C(=O)O` [L-citrulline], the “pulmonary artery pressure vs untreated hypoxic animals” value in data set [1] (FIG. 3, p-value of 0.01, not different from normoxic controls (p=0.08)) is on record as “significantly lower”. Moreover, in data set [1] (FIG. 4, L-citrulline treated hypoxic animals, significantly lower than untreated hypoxic (p-value of 0.001)), the “calculated pulmonary vascular resistance” value was 0.071±0.003. For the same molecule, the “development of pulmonary hypertension” value in data set [1] (newborn piglets exposed to 10 days of chronic hypoxia, oral supplementation) is recorded as “ameliorates the development of pulmonary hypertension”. For the same molecule, the “exhaled NO output vs untreated hypoxic animals” value in the data set with exhaled NO is recorded as “higher”. Besides, in the data set on nitrite/nitrate (NOx-), the “NOx- accumulation rate in lung perfusate vs untreated hypoxic animals” value is “significantly higher”. In addition, the “Plasma Citrulline” value was determined as 219 ± 36 in data set [2] (90 minutes after administration of L-citrulline dose, N = 3) and 161 ± 5 in data set [2] (trough, approximately twelve hours after L-citrulline dose, N = 6). The “plasma L-citrulline level relative to untreated chronic hypoxic animals” value in data set [2] (ninety minutes after a dose, p=0.001) was “almost twice”. Moreover, the “plasma arginine levels vs untreated hypoxic animals” value in data set [2] (regardless of the time the sample was drawn) is given as “not higher”.

The record behind these values is patent publication US20090312423A1, “THERAPEUTIC TREATMENT FOR LUNG CONDITIONS” (Vanderbilt University, priority 2008, published 2009).
